In patent US10329334B2 (SANOFI, priority 2015, dated 2019):

Legend:
[1] = biological target: T1, human lipocalin 2 (hNGAL) muteins from affinity optimization of SEQ ID NO: 55 (Homo sapiens, UniProt P80188); test: Solution binding ELISA, muteins from affinity optimization of SEQ ID NO: 55
T1 construct: C-terminal SA linker and Strep-tag II; E. coli
Procedure: (§1) Solution binding of muteins was assayed by a “Solution binding ELISA”, the principle of which was as follows: a constant concentration of the tested mutein was incubated with variable concentrations of ligands (Pvd I s, sa, aKG+/−Fe/Pvd II s, sa, aKG+/−Fe/Pvd III s, sa, aKG+/−Fe/Pch+/−Fe) for 1 h. After this pre-incubation in solution, an aliquot of the mutein/ligand mixture was transferred to an ELISA plate with biotinalyted Pvd I s (+Fe), Pvd II s (+Fe), Pvd III s (+Fe) or Pch immobilized via Neutravidin to measure the remaining concentration of free muteins. The concentration of free (non ligand-bound) muteins was determined via a quantitative ELISA setup.
(§2) In detail, a 384-well plate suitable for fluorescence measurements (Greiner FLUOTRAC™ 600, black flat bottom, high-binding) was coated with 20 μl of Neutravidin at a concentration of 5 μg/ml in PBS over night at 4 C. […]
(§3) The residual supernatants were discarded and 20 μl HRP-labeled anti-hNGAL antibody was added at a predetermined optimal concentration in PBS-T/BSA and incubated for 1 h at RT. […] The fluorescence intensity of every well on the plate was read using a fluorescence microplate reader (Tecan or Molecular Devices). To evaluate the data, free mutein concentration, c(mutein)free, was calculated based on the standard curve results, and plotted versus ligand concentration, c(Ligand). […]

[2] = biological target: T2, human lipocalin 2 (hNGAL) mutein SEQ ID NO: 56 (Homo sapiens, UniProt P80188, A60F/C107S/D97A/I61H/K145G/K154V/K93A/L123M/L56M/L90P/N116A/Q48H/Q69S/R101I/R92W/S147W/S88H/W99K/Y120G/Y126W/Y152T/Y72P); test: Solution binding ELISA, mutein SEQ ID NO: 56
T2 construct: made in house; host or cells: E. coli
T2 sequence (P80188 21-198 with the stated changes): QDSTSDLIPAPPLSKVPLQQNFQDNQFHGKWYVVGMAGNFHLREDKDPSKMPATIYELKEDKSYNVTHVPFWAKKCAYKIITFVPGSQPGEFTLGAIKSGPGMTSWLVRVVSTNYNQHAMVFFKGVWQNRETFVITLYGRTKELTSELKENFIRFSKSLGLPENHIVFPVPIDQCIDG
Procedure: (§5) In detail, a 384-well plate suitable for fluorescence measurements (Greiner FLUOTRAC™ 600, black flat bottom, high-binding) was coated with 20 μl of Neutravidin at a concentration of 5 μg/ml in PBS over night at 4 C. After washing, the Neutravidin-coated wells were blocked with 100 μl blocking buffer containing 0.1% Tween 20 and 2% BSA (PBS-T/BSA) for 1 h at room temperature.
(§6) The residual supernatants were discarded and 20 μl HRP-labeled anti-hNGAL antibody was added at a predetermined optimal concentration in PBS-T/BSA and incubated for 1 h at RT. […] After washing, 20 μl fluorogenic HRP substrate (QuantaBlu, Thermo) was added to each well, and the reaction was allowed to proceed for 15 to 60 minutes. The fluorescence intensity of every well on the plate was read using a fluorescence microplate reader (Tecan or Molecular Devices). […] Curve fitting was performed using GraphPad Prism 4 software.

[3] = biological target: negative control lipocalin SEQ ID NO: 64 (Homo sapiens, UniProt P80188, C107S/Q48H); test: SPR (Biacore T200), negative control SEQ ID NO: 64; assay type: binding; conditions: 200 nM
Chain of negative control lipocalin SEQ ID NO: 64 (P80188 21-198 Q48H/C107S): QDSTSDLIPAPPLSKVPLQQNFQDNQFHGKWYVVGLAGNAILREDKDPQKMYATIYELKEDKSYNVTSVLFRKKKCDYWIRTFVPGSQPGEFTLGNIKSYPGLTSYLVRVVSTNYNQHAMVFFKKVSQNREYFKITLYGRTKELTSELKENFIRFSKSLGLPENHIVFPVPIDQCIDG
Procedure: (§4) In a Surface Plasmon Resonance (SPR) based assay a Biacore T200 instrument (GE Healthcare) was used to measure the binding affinity of muteins to pyoverdine I succinyl, -succinamid, -α-ketoglutaryl with complexed iron ion or to pyoverdine II succinyl, -succinamid, -α-ketoglutaryl with complexed iron ion or to pyoverdine III succinyl, -succinamid, -α-ketoglutaryl with complexed iron ion. Muteins selected for binding to pyoverdines and negative control (SEQ ID NO: 64) were biotinylated for 2 h at room temperature applying an appropriate excess of EZ-Link NHS-PEG4-Biotin (Thermo, […]) followed by separation of non-reacted Biotin using a Zeba Spin Desalting Plate (Thermo, […]) according to the manufactures instructions.
In the SPR affinity assay, biotinylated muteins and negative control were captured on a sensor chip CAP using the Biotin CAPture Kit (GE Healthcare): Sensor Chip CAP is pre-immobilized with an ssDNA oligo. Undiluted Biotin CAPture Reagent (streptavidin conjugated with the complementary ss-DNA oligo) was applied at a flow rate of 2 μl/min for 300 s. Subsequently, 1 μg/ml to 100 μg/mL of biotinylated muteins or negative control were applied for 300 s at a flow rate of 5 μl/min. The reference channel was loaded with Biotin CAPture Reagent only.
Applying a flow rate of 30 μl/min, a single cycle or multi cycle kinetics approach was used with a sample contact time of 120-180 s and a dissociation time of 900-2400 s. […] After ligand immobilization, for analysis using single cycle kinetics all 4-5 concentrations of Pvd were applied consecutively in ascending order before the dissociation was monitored. For analysis using multi cycle kinetics 4 dilutions of Pvd were applied, each followed a dissociation phase. All measurements were performed at 25° C. […] Data were evaluated with Biacore T200 Evaluation software (V 1.0). Double referencing was used. A 1:1 Binding model was used to fit the raw data. […]

[4] = biological target: T3, human lipocalin 2 (hNGAL) mutein SEQ ID NO: 57 (Homo sapiens, UniProt P80188, A60Y/C107S/D97R/I61W/K145L/K154N/K93R/L123Q/L56V/L90R/N116P/Q48H/Q69A/R101W/R92W/S147R/S88D/W99D/Y120E/Y126R/Y152A); test: Solution binding ELISA, mutein SEQ ID NO: 57
T3 construct: made in house; host or cells: E. coli
T3 sequence (P80188 21-198 with the stated changes): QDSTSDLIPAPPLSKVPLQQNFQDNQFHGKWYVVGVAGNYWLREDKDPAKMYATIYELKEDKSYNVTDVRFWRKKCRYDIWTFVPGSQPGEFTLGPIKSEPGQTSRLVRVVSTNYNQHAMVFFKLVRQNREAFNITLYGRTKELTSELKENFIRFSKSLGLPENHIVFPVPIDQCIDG
Procedure: as §5, §6

[5] = biological target: T4, human lipocalin 2 (hNGAL) muteins from affinity optimization of SEQ ID NO: 56 (Homo sapiens, UniProt P80188); test: Solution binding ELISA, muteins from affinity optimization of SEQ ID NO: 56
T4 construct: C-terminal SA linker and Strep-tag II; E. coli
T4 sequence (P80188 21-198, stated change not applied): as the sequence (P80188 21-198 Q48H/C107S) above, with H28Q, S87C counted along it
Procedure: as §1, §2, §3

[6] = biological target: T5, human lipocalin 2 (hNGAL) mutein SEQ ID NO: 32 (Homo sapiens, UniProt P80188, A60E/C107S/D97N/E64D/I61V/K145N/K154W/K93N/L123V/L56V/L90R/N116K/N85D/Q48H/Q69G/R101E/R92H/S147K/S88E/W99F/Y120N/Y126M/Y152G/Y72P); test: SPR (Biacore T200), mutein SEQ ID NO: 32; assay type: binding; conditions: 25° C.
T5 construct: made in house; host or cells: E. coli
T5 sequence (P80188 21-198 with the stated changes): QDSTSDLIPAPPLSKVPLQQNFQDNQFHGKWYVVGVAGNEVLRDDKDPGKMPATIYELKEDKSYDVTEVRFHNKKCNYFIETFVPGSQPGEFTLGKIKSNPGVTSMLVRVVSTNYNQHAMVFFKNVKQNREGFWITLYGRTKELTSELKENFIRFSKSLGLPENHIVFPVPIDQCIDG
Procedure: (§7) In a Surface Plasmon Resonance (SPR) based assay a Biacore T200 instrument (GE Healthcare) was used to measure the binding affinity of muteins to pyoverdine I succinyl, -succinamid, -α-ketoglutaryl with complexed iron ion or to pyoverdine II succinyl, -succinamid, -α-ketoglutaryl with complexed iron ion or to pyoverdine III succinyl, -succinamid, -α-ketoglutaryl with complexed iron ion. Muteins selected for binding to pyoverdines and negative control (SEQ ID NO: 64) were biotinylated for 2 h at room temperature applying an appropriate excess of EZ-Link NHS-PEG4-Biotin (Thermo, Cat#21329) followed by separation of non-reacted Biotin using a Zeba Spin Desalting Plate (Thermo, Cat#21329) according to the manufactures instructions.

[7] = biological target: T6, human lipocalin 2 (hNGAL) mutein SEQ ID NO: 36 (Homo sapiens, UniProt P80188, A60T/C107S/D97H/K145I/K154W/K93R/L123T/L56V/L90R/N85D/Q69G/R101D/R92I/S147R/S88D/T74A/W99Y/Y126Q/Y152I/Y72N); test: SPR (Biacore T200), mutein SEQ ID NO: 36; assay type: binding; conditions: 25° C.
T6 construct: made in house; host or cells: E. coli
T6 sequence (P80188 21-198 with the stated changes): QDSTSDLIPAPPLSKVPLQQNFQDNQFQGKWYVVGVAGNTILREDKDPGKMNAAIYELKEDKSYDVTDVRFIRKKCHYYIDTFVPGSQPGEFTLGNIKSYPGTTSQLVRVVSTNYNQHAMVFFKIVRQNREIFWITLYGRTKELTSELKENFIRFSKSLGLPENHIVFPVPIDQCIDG
Procedure: as §7

[8] = biological target: T7, human lipocalin 2 (hNGAL) mutein SEQ ID NO: 8 (Homo sapiens, UniProt P80188, A60T/C107S/D97I/I100T/I61T/K145Y/K154N/K93E/L123Q/L56W/L90Q/N116G/Q48H/Q69P/R101I/R92P/S147I/S88D/W99S/Y120S/Y126H/Y152G/Y72P); test: SPR (Biacore T200), mutein SEQ ID NO: 8; assay type: binding; conditions: 25° C.
T7 construct: made in house; host or cells: E. coli
T7 sequence (P80188 other isoform, or with tags, fused parts or gaps with the stated changes): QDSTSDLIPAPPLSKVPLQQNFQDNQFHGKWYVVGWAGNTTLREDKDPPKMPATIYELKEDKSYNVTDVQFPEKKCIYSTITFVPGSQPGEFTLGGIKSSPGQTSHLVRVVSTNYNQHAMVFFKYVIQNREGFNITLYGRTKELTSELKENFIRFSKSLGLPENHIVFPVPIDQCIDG
Procedure: as §7

[9] = biological target: T8, human lipocalin 2 (hNGAL) mutein SEQ ID NO: 9 (Homo sapiens, UniProt P80188, A60T/C107S/D97I/I61T/K145Y/K154N/K93D/L123D/L56W/L90Q/N116G/Q48H/Q69P/R101I/R92P/S147V/S88D/W99S/Y120N/Y126H/Y152G/Y72P); test: SPR (Biacore T200), mutein SEQ ID NO: 9; assay type: binding; conditions: 25° C.
T8 construct: made in house; host or cells: E. coli
T8 sequence (P80188 other isoform, or with tags, fused parts or gaps with the stated changes): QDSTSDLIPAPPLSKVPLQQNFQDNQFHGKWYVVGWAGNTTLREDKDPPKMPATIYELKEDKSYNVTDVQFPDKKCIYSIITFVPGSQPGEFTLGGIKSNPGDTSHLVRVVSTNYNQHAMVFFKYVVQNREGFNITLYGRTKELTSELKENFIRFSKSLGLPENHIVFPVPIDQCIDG
Procedure: as §7

[10] = biological target: T9, human lipocalin 2 (hNGAL) mutein SEQ ID NO: 33 (Homo sapiens, UniProt P80188, A60E/C107S/D97N/E64D/I61V/K145N/K154W/K93N/L123V/L56V/L90R/N116K/N85Q/Q48H/Q69G/R101E/R92H/S147K/S88E/W99F/Y120N/Y126M/Y152G/Y72P); test: SPR (Biacore T200), mutein SEQ ID NO: 33; assay type: binding; conditions: 25° C.
T9 construct: made in house; host or cells: E. coli
T9 sequence (P80188 21-198 with the stated changes): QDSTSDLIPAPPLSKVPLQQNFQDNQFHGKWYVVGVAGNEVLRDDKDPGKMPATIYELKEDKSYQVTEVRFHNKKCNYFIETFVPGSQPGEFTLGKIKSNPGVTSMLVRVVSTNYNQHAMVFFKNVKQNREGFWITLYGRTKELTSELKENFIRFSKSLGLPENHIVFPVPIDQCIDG
Procedure: as §7

[11] = biological target: T10, human lipocalin 2 (hNGAL) mutein SEQ ID NO: 11 (Homo sapiens, UniProt P80188, A60T/C107S/D97V/I61T/K145Y/K154N/K93D/L123N/L56W/L90Q/N116G/Q48H/Q69P/R101I/R92P/S147V/S88D/W99S/Y120N/Y126H/Y152G/Y72P); test: SPR (Biacore T200), mutein SEQ ID NO: 11; assay type: binding; conditions: 25° C.
T10 construct: made in house; host or cells: E. coli
T10 sequence (P80188 21-198 with the stated changes): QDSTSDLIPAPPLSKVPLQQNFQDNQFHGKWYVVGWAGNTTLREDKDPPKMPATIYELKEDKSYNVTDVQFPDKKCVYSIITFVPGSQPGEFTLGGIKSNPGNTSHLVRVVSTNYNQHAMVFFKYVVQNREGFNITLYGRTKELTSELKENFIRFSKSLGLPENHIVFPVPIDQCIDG
Procedure: as §7

[12] = biological target: T11, human lipocalin 2 (hNGAL) mutein SEQ ID NO: 16 (Homo sapiens, UniProt P80188, A60T/C107S/D97I/I100T/I61A/K145Y/K154N/K93E/K95E/L123Q/L56W/L90Q/N116G/N85D/Q69P/R101I/R92P/S147T/S88D/T156A/T74V/W99S/Y120S/Y126H/Y152G/Y72P); test: SPR (Biacore T200), mutein SEQ ID NO: 16; assay type: binding; conditions: 25° C.
T11 construct: made in house; host or cells: E. coli
T11 sequence (P80188 21-198 with the stated changes): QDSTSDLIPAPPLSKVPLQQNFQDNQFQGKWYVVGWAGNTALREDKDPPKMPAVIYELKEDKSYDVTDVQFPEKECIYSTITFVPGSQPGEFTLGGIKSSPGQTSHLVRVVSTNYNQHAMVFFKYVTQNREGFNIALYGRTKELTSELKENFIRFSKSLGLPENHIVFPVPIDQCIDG
Procedure: as §7

[13] = biological target: T12, human lipocalin 2 (hNGAL) mutein SEQ ID NO: 35 (Homo sapiens, UniProt P80188, A60T/C107S/D97H/K145I/K154W/K93R/L123T/L56V/L90R/N85Q/Q48H/Q69G/R101D/R92I/S147R/S88D/T74A/W99Y/Y126Q/Y152I/Y72N); test: SPR (Biacore T200), mutein SEQ ID NO: 35; assay type: binding
T12 construct: made in house; host or cells: E. coli
T12 sequence (P80188 21-198 with the stated changes): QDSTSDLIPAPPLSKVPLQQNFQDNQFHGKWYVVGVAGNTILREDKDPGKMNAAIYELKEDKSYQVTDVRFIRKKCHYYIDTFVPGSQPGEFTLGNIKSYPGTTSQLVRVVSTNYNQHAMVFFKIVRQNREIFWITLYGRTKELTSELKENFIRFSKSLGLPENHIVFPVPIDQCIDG
Procedure: as §7

[14] = biological target: T13, human lipocalin 2 (hNGAL) mutein SEQ ID NO: 10 (Homo sapiens, UniProt P80188, A60T/C107S/D97T/I61T/K145Y/K154N/K93E/L123E/L56W/L90Q/N116D/Q48H/Q69P/R101I/R92P/S147D/S88D/V131M/W99S/Y120N/Y126H/Y152G/Y72P); test: SPR (Biacore T200), mutein SEQ ID NO: 10; assay type: binding; conditions: 25° C.
T13 construct: made in house; host or cells: E. coli
T13 sequence (P80188 other isoform, or with tags, fused parts or gaps with the stated changes): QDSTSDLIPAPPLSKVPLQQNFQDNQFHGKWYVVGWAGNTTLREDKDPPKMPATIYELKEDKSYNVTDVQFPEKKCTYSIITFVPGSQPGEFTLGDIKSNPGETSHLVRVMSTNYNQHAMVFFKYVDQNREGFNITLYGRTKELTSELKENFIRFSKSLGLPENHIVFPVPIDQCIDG
Procedure: as §7

[15] = biological target: T14, human lipocalin 2 (hNGAL) mutein SEQ ID NO: 13 (Homo sapiens, UniProt P80188, A60T/C107S/D97I/I100T/I61T/K145Y/K154N/K93E/K95E/L123Q/L56W/L90Q/N116G/Q48H/Q69P/R101I/R92P/S147T/S88D/T74V/W99S/Y120S/Y126H/Y152G/Y72P); test: SPR (Biacore T200), mutein SEQ ID NO: 13; assay type: binding; conditions: 25° C.
T14 construct: made in house; host or cells: E. coli
T14 sequence (P80188 21-198 with the stated changes): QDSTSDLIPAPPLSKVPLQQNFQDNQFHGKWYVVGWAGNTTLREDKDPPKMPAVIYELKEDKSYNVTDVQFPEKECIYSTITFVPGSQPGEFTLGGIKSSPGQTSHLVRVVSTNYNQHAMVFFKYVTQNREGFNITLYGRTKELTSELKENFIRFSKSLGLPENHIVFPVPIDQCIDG
Procedure: as §7

[16] = biological target: T15, human lipocalin 2 (hNGAL) mutein SEQ ID NO: 53 (Homo sapiens, UniProt P80188, A60L/C107S/D97K/I61A/K154W/K93H/L123Q/L56E/L62R/L90R/N116L/N85D/Q69M/R101V/S125P/S147V/S88E/W99D/Y120D/Y126E/Y72M); test: SPR (Biacore T200), mutein SEQ ID NO: 53; assay type: binding; conditions: 25° C.
T15 construct: made in house; host or cells: E. coli
T15 sequence (P80188 21-198 with the stated changes): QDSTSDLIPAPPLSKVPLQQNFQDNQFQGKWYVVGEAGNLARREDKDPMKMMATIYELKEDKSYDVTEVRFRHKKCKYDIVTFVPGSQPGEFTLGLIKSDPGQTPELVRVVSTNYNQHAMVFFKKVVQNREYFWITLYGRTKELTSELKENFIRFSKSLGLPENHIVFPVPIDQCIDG
Procedure: as §4
In the SPR affinity assay, biotinylated muteins and negative control were captured on a sensor chip CAP using the Biotin CAPture Kit (GE Healthcare): Sensor Chip CAP is pre-immobilized with an ssDNA oligo. […]
Applying a flow rate of 30 μl/min, a single cycle or multi cycle kinetics approach was used with a sample contact time of 120-180 s and a dissociation time of 900-2400 s. […] After ligand immobilization, for analysis using single cycle kinetics all 4-5 concentrations of Pvd were applied consecutively in ascending order before the dissociation was monitored. […] Data were evaluated with Biacore T200 Evaluation software (V 1.0). […]

[17] = biological target: natural wild-type hNGAL (human lipocalin 2) (Homo sapiens, UniProt P80188); conditions: Peek et al. 2012; cited from earlier work
Chain of natural wild-type hNGAL (human lipocalin 2) (P80188 21-198): as the sequence (P80188 21-198 Q48H/C107S) above, with H28Q, S87C counted along it

T1 sequence (P80188 21-198, stated change not applied): as the sequence (P80188 21-198 Q48H/C107S) above, with H28Q, S87C counted along it

In the case of `CN1C([C@H]2CSC(c3ccccc3O)=N2)SC[C@H]1C(=O)O.[Fe+3]` (stereo partly shown) [pch (+Fe), pyochelin], the “affinity (in words)” value ([1]; solution binding ELISA) is reported as “single digit nM affinity”, the “affinity (in words)” value [2] is reported as “two- to three digit nM affinity” and the “absence of binding to negative control” value [3] is reported as “absence of binding”. The “affinity (in words)” value [4] was “two- to three digit nM affinity” and the “affinity (in words)” value [5] was “no or weak affinity”.
With `O=C(N[C@H]1COC(=O)[C@@H](NC(=O)c2cccc(O)c2O)COC(=O)[C@@H](NC(=O)c2cccc(O)c2O)COC1=O)c1cccc(O)c1O.[Fe+3]` [Fe-Enterobactin, enterobactin] the KD [6] was “no bdg”, the KD [7] was “no bdg” and the KD [8] was “no bdg”. The KD [9] was “no bdg”, the KD [10] was “no bdg” and the KD [11] was “no bdg”. The KD [12] was “no bdg”, the KD ([13]; 25° C.) was “no bdg” and the KD [14] was “no bdg”. The KD [15] was “no bdg” and the KD [16] was “no bdg”.
For `CN1C([C@H]2CSC(c3ccccc3O)=N2)SC[C@H]1C(=O)O` (stereo partly shown) [pch (−Fe), pyochelin], the improved affinity ([1]; versus SEQ ID NO: 55) was “more than 75 fold”, the “affinity (in words)” value [2] was “weak affinity or not at all” and the “affinity (in words)” value [4] was “weak affinity or not at all”.
For `O=C(N[C@H]1COC(=O)[C@@H](NC(=O)c2cccc(O)c2O)COC(=O)[C@@H](NC(=O)c2cccc(O)c2O)COC1=O)c1cccc(O)c1O` [Enterobactin, enterobactin, reference compound], the “specificity and crossreactivity (binding)” value ([13]; 2 μM for all analytes) is listed as “absence of binding” and the “binding to wild-type hNGAL” value [17] is listed as “high affinity”.
In the case of Pyoverdine, the “binding to wild-type hNGAL” value [17] is listed as “did not bind”.
